Measured values from patent publication US10925867B2, “Immunotherapeutic dosing regimens comprising pomalidomide and an anti-CS1 antibody for treating cancer” (Bristol-Myers Squibb Company, priority 2015, dated 2021).
Like-named read-outs stand apart in the source and are kept apart here.

Tests used:
SLAMF7 = molecular target: T1, SLAMF7 (Homo sapiens, UniProt Q9NQ25); assay: Saturation of SLAMF7 on bone marrow plasma cells, Phase 2 study of elotuzumab and lenalidomide/dexamethasone; format: in vivo; conditions: doses ≥10 mg/kg
T1 construct: endogenous in cells; host or cells: bone marrow plasma (myeloma) cells from multiple myeloma subjects treated with elotuzumab plus lenalidomide/dexamethasone
T1 sequence (Q9NQ25 23-335): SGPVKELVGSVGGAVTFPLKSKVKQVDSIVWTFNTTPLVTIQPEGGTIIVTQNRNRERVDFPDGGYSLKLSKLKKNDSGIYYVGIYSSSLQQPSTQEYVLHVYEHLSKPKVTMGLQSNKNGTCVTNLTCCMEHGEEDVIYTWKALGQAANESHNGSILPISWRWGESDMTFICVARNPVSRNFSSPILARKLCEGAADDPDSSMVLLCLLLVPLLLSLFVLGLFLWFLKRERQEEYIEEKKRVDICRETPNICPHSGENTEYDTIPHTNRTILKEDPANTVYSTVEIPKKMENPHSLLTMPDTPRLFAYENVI
Experimental: FIG. 7. Saturation of SLAMF7 Target on Bone Marrow Myeloma Samples from Subjects Treated in a Phase 2 Study of Elotuzumab and Lenalidomide/Dexamethasone (HuLuc63).
Following elotuzumab dosing of 10 and 20 mg/kg in combination with lenalidomide, the observed steady-state Cmin values consistently remained above 70 μg/mL, the minimum efficacious trough concentrations (Lonial et. al., J Clin Oncol. 30(16):1953-1959. (2012)). […] Given the lack of difference in efficacy, safety, PK and SLAMF7 saturation between 10 and 20 mg/kg, the 10 mg/kg weekly for the first 2 cycles followed by 20 mg/kg monthly thereafter, was selected to improve patient convenience and compliance.

[1] = system: primary multiple myeloma cells; conditions: in the presence of peripheral lymphocytes; cited from earlier work
human myeloma xenografts = conditions: intraperitoneally (IP), dose-dependent; cited from earlier work
multiple myeloma = conditions: cited from earlier work
[2] = system: relapsed and refractory MM; conditions: cited from earlier work
[3] = 38 subjects, including 22 with dexamethasone added

In the case of “Elotuzumab: humanized monoclonal IgG1 antibody directed against CS-1; VL SEQ ID NO:1, VH SEQ ID NO:2”, the “saturation of SLAMF7 on bone marrow plasma cells” value (SLAMF7) is listed as “complete saturation”, the ADCC [1] is listed as “induces significant antibody-dependent cellular cytotoxicity (ADCC)” and the tumor growth (human myeloma xenografts) is listed as “inhibits tumor growth of human myeloma xenografts”.
For `Nc1cccc2c1C(=O)N(C1CCC(=O)NC1=O)C2=O` (racemic) [Pomalidomide, (RS)-4-amino-2-(2,6-dioxo-piperidin-3-yl)-isoindole-1,3-dione], the “ORR (≥PR)” value (multiple myeloma; 2 mg/day) is listed as 29%, the “median PFS” value (multiple myeloma; 2 mg/day) is listed as 5.5 months and the “median duration of response” value (multiple myeloma; 2 mg/day) is listed as 14.1 months. The “ORR (≥PR)” value (multiple myeloma; 4 mg/day) was 35%, the “median PFS” value (multiple myeloma; 4 mg/day) was 6.9 months and the “median duration of response” value (multiple myeloma; 4 mg/day) was 14.5 months. The “number of DLTs (Grade 4 neutropenia)” value ([2]; 5 mg daily Days 1-21 of 28-day cycle) was 4, the “treatment-emergent Grade 3/4 anemia” value ([2]; 38 subjects, 2-5 mg) was 21% and the “treatment-emergent Grade 3/4 fatigue” value ([2]; 38 subjects, 2-5 mg) was 16%. For the same compound, the “treatment-emergent Grade 3/4 neutropenia” value ([2]; 38 subjects, 2-5 mg) was 53%, the “treatment-emergent Grade 3/4 thrombocytopenia” value ([2]; 38 subjects, 2-5 mg) was 18% and the “subjects achieving CR” value [2, 3] was 3%. The “subjects achieving ≥MR or better” value [2, 3] was 42%, the “subjects achieving ≥PR” value [2, 3] was 21% and the MTD ([2]; Days 1-21 of 28-day cycle) was 4 mg/day.
